Laboratory results taken from patent US5872150A, “Treatment of prostate disease with a nonsteroidal anti-androgenic compound” (Merck & Co., Inc., priority 1997, dated 1999).
“Also recorded” adds a separate entry of the source.

Tests used:
DDT1 cells = test: DDT1 Assay: androgen (testosterone) dependent growth of DDT1 cells, MTS proliferation; assay type: cell-based, Syrian hamster
Method: Cells were plated in a 96 well plate at 2,000 cells/well in DFITS+0.1% fetal calf serum. […] Cell growth data were normalized to the greatest number of cells and error bars represent +/- one standard error of the mean (sem).
Media was charged every 48 hours. Cells were plated at ~2,000/well in 96-well plates or ~6,000 cells/cm^2 in DMEM: F12 (GIBCO BRL) nutrient mixture (1:)+ITS™ (insulin, transferrin, selenious acid) (Collaborative Biomedical Products/Becton Dickinson Labware) (final concentrations 5 μg/mL insulin, 5 μ/mL transferrin, 5 ng/mL selenious acid) (DFITS media)+0.1% bovine calf serum (Hyclon®, BCS defined, iron supplemented).
After 24 hours, the cells were washed with the same media except without added serum and replaced with fresh serum-free DFITS medium (day 0).
In a typical experiment, cells were plated in sets of 12 in the presence of either a mock ethanol control (0.1-0.2% total volume) or N-(4-chlorophenyl)-(Z,Z)-2,3-bis(cyclopropylmethylene) cyclopentane carboxamide dissolved in 100% ethanol as a 1000X concentrated stock solution. Cell growth was then measured using a CellTiter96™ Non-Radioactive Cell Proliferation Assay (Promega Corporation) according to the manufacturer's protocol using a Bio Kinetics EL 340 microplate reader (BioTek Instruments, Inc.). 3-(4,5-dimethylthiazol-2-yl)-5-(3-carboxyl methoxyphenyl)-2-(4-sulfophenyl)-2H-tetrazolium (MTS) was diluted into media at a final concentration of 333 μg/mL and penazine methosulfate (PMS) was used at a final concentration of 25 μM with a total volume per well of 100 μL. Plates were then incubated for one hour at 37° C. in a humidified 5% CO2 atmosphere.

androgen receptor [1] = biological target: T1, androgen receptor (Homo sapiens, UniProt P10275); test: Ligand dependent transcription assay, CV1 cells co-transfected with AR and probasin luciferase reporter (pPBluc + AR); assay type: cell-based; design: expressed in transfected cells; host or cells: CV1 cells, transient co-transfection of pSGAR with the probasin-luciferase reporter pPBluc
T1 sequence (P10275 1-920): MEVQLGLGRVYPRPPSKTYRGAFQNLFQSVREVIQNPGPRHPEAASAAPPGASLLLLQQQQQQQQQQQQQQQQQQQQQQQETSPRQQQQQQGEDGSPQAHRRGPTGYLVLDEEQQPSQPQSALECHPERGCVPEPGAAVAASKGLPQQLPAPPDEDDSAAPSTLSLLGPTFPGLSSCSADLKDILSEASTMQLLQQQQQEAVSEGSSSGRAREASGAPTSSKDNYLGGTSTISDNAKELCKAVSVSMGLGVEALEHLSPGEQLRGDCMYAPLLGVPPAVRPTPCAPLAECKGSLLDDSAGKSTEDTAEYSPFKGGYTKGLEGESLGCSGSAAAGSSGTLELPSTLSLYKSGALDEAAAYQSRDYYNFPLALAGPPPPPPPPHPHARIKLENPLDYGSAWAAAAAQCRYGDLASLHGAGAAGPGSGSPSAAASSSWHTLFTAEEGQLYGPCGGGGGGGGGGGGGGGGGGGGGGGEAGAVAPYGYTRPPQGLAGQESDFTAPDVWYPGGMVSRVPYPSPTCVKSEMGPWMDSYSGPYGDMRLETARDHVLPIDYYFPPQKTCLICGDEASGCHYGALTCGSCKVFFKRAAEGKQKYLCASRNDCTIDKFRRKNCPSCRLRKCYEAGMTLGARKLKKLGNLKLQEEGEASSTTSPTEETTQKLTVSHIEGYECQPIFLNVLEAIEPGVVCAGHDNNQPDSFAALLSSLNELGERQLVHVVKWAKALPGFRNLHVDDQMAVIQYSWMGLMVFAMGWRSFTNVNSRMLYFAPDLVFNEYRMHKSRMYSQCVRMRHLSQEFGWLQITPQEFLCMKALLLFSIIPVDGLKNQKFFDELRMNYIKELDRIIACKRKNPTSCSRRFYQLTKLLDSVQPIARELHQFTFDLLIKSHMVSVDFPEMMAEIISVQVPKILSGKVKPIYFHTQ
Method: FIG. 2 is a graph showing the effect of N-(4-chlorophenyl)-(Z,Z)-2,3-bis(cyclopropyl-methylene)cyclopentane carboxamide on the activation of the androgen receptor in CV1 cells, as described in Example 4.
(§1) Ligand dependent transcription assays were performed as described in Schnmidt et al. "Identification of a new member of the steroid hormone receptor superfamily that is activated by a peroxisome proliferator and fatty acids," Mol. Endocrinol. 6:1634-1641 (1992). A luciferase cDNA expressed under the control of the promoter region of the probasin gene that confers androgen receptor dependent transcription was used as a reporter gene, see Rennie et al. "Characterization of two cis-acting DNA elements involved in the androgen regulation of the probasin gene" Mol Endocrinol. 7:23-36 (1993). The promoter region, -426 to +40 of the rat probasin gene was amplified by polymerase chain reaction (PCR) and inserted upstream of the luciferase cDNA of pGL3 Basic plasmid (Promega). The expression vector pSGAR that expressed the normal human AR was used as a source of receptor, see, Chang et al. "Molecular cloning of human and rat complementary DNA encoding androgen receptors," Science 240:324-326 (1988). Transient transfection of CV1 cells was performed by plating cells (1.5×10^5 per mL) into 12 well dishes in phenol red-free medium supplemented with 10% fetal calf serum treated with activated charcoal to remove endogenous steroids. Cells were then transfected the following day by addition of a calcium phosphate precipitate of plasmid DNA. Cells were then washed with fresh media after an overnight incubation and ligands were added. Cell extracts were prepared after forty eight hours and assayed for luciferase enzyme activity using the Luciferase Assay System (Promega). Each transfection was performed in triplicate and the […] of each sample was measured using the AutoChemiluminometer (Berthold).

androgen receptor [2] = biological target: T1, androgen receptor; test: Binding to the human androgen receptor (hAR), displacement of [3H]-DHT, stable CHO transfectants; design: expressed in transfected cells; cytosol, 100,000×g supernatant; conditions: stable transfectants of CHO cells
Method: Binding to the Androgen Receptor
All samples were prepared in duplicate. […] Free steroids were removed by addition of dextran-coated charcoal followed by centrifugation at 3,000×g for fifteen minutes at 4° C.
47: 1080-1088 (1995) except that stable transfectants of CHO cells were employed (gift from Prof. Michael McPhaul Southwestern Medical Center, Dallas, Tex.) that typically express 30-80 fmoles receptor/mg soluble protein.

[3] = tested on: probasin luciferase reporter gene; test: Ligand dependent transcription assay, CV1 cells with probasin reporter gene and control plasmid, no AR (pPBluc); assay type: cell-based, rat
Method: as §1, with “6:1634-1641 (1992).” left out, “7:23-36 (1993). The promoter region, -426 to +40 of the rat probasin gene was amplified by polymerase chain reaction (PCR) and inserted upstream of the luciferase cDNA of pGL3 Basic plasmid (Promega). The expression vector pSGAR that expressed the normal human AR was used as a source of receptor, see, Chang et al. "Molecular cloning of human and rat complementary DNA encoding androgen receptors," Science 240:324-326 (1988).” left out

| SMILES | antagonism of the action of testosterone on DDT1 cells (DDT1 cells) | inhibition of testosterone-induced DDT1 cell growth, comparison with hydroxyflutamide (DDT1 cells) | effect on testosterone-induced cell proliferation (DDT1 cells; compound at 10 μM with 10 nM testosterone) | effect on cell proliferation, compound alone (DDT1 cells; without testosterone, serum-free medium) | inhibition of transactivation mediated by DHT (androgen receptor [1]; CV1 cells, 10 nM DHT) | luciferase expression from the pPBluc reporter gene, compound alone (androgen receptor [1]; CV1 cells, without DHT) | IC50 (androgen receptor [1]; read-out: Fifty percent inhibition of transactivation) [nM] | blocking of the binding of 3H-DHT (androgen receptor [2]) | pPBluc, Light Units ± std ([3]; DHT 10^-7 M) [Light Units] | pPBluc, Light Units ± std ([3]; DHT 10^-9 M) [Light Units] |
| --- | --- | --- | --- | --- | --- | --- | --- | --- | --- | --- |
| O=C(Nc1ccc(Cl)cc1)C1CCC(=C/C2CC2)/C1=C\C1CC1 (stereo not shown) [N-(4-chlorophenyl)-(Z,Z)-2,3-bis(cyclopropylmethylene)cyclopentane carboxamide] | antagonizes the action of testosterone on DDT1 cells | inhibits testosterone-induced DDT1 cell growth in a manner similar to that of hydroxyflutamide | reduced cell proliferation to levels close to that of the ethanol mock control | little or no effect on cell growth by itself; also recorded: little or no effect on cell proliferation | inhibited the transactivation mediated by DHT in a dose dependent manner | did not affect luciferase expression | ~2000 | blocks the binding of ^3 H-DHT to the human androgen receptor expressed in stable transfectants of CHO cells at doses comparable to those that antagonize testosterone in DDT1 cells | – | – |
| C[C@]12CCC(=O)C[C@@H]1CC[C@@H]1[C@@H]2CC[C@]2(C)[C@@H](O)CC[C@@H]12 [DHT, 5α-dihydrotestosterone] | – | – | – | – | – | – | – | – | 3300 ± 1100 | 3000 ± 300 |
